# Measurements: patent US12247224B2, “Organoids for drug screening and personalized medicine” (SENTING, LLC, priority 2014, dated 2025)
# Columns and labels:
# Type in all cases: cell-based, human
# [1] = test system: tumor-organoids UHN6, UHN17, UHN3, UHN5 and UHN15 (primary PDAC); test: MTT assay of tumor-organoid cultures treated with drugs
# Source text: (§1) (A) Time lapse imaging sequence of UHN6 derived organoids. (B) H&E, phase and immunofluorescence images for KRT19 (bright) and DAPI (dark) of images of tumor-organoids and their matched primary tumors. ((C) H&E images showing maintenance of inter-organoid heterogeneity in histoarchitecture representing variation in primary patient tumor. (D) Normalized MTT assay readings of organoid cultures treated with gemcitabine for 4 days. E) Normalized MTT assay readings of organoid cultures with gemcitabine and epigenetic inhibitor of the H3K27me3 writer EZH2 (UNC1999). (F) Normalized MTT reading of tumor-organoids treated with UNC199 alone. See online Methods for details. (G) Immunostaining for H3K27me3 (bright) in two primary patient tumors (top panel) and corresponding tumor-organoids (bottom panel). (H) Basal 02 consumption as measured by Seahorse™ flux analyzer with and without UNC1999 treatment. For MTT and oxygen consumptions experiments, data represent mean+/−S.D. P value (t-test, two tailed): N.S-, not significant; *−p=0.01-0.05; **−p=0.001-0.01; ***, p=<0.001 (n=3). All scale bars equal to 50 μm.
# (§2) For MTT and oxygen consumptions experiments, data represent mean+/− S.D. P value (t-test, two tailed): N.S-, not significant; *−p=0.01-0.05; **−p=0.001-0.01; ***, p=<0.001 (n=3). (B) Immunostaining for H3K27me3 in control (DMSO) or UNC 1999-treated tumor-organoids. Scale bars, 50 μm. (C) Tumor-organoids (top panel) and primary tumors (bottom panel) derived from tumor UHN3, UHN 5 and UHN15, show consistent patient-specific variation in staining for H3K27me3. Scale bars, 50 μm.
# For pancreas progenitor organoid culture, T9 cells were resuspended and plated in the PTOM (Pancreatic Progenitor and Tumor Organoid Media) containing DMEM with factors including serum-free supplements, FGFs, and insulin. The cells were plated on a bed of Matrigel as described before 3. At day 8 in 3D culture, replace culture medium with fresh POMM (Pancreatic Organoid Maintenance Media) (PTOM media without FGFs) with 5% Matrigel every 4 days. PODM I (Pancreatic Organoid Differentiation Media) contains DMEM with B27, 2-phospho ascorbic acid, FGF, EGF, TGF beta inhibitors. PODM II contains DMEM with B27, 2-phospho ascorbic acid, FGF, EGF. Fresh tissues of primary tumors from patients were washed twice with DMEM, digested with collagenase (Roche) and resuspended in PTOM. Tumor cells were then seeded in 3D culture chambers as described above. Culture media were replaced every 4 days. For serial passaging of organoids, day 16 organoids were treated with collagenase for 2 hours then further dissociated with trypsin for 10-30 minutes. Cells were collected and re-seeded in 3D culture following protocols as described above. […]
# We analyzed five organoid cultures, UHN6, UHN17, UHN3, UHN5 and UHN15. […]
# progenitor-organoids = test: Toxicity of epigenetic inhibitors to normal cells in progenitor-organoids; conditions: compared with JQ1, LAQ824, SGC0946, data not shown
# Protocol: For pancreas progenitor organoid culture, T9 cells were resuspended and plated in the PTOM (Pancreatic Progenitor and Tumor Organoid Media) containing DMEM with factors including serum-free supplements, FGFs, and insulin. The cells were plated on a bed of Matrigel as described before 3. At day 8 in 3D culture, replace culture medium with fresh POMM (Pancreatic Organoid Maintenance Media) (PTOM media without FGFs) with 5% Matrigel every 4 days. PODM I (Pancreatic Organoid Differentiation Media) contains DMEM with B27, 2-phospho ascorbic acid, FGF, EGF, TGF beta inhibitors. PODM II contains DMEM with B27, 2-phospho ascorbic acid, FGF, EGF. Fresh tissues of primary tumors from patients were washed twice with DMEM, digested with collagenase (Roche) and resuspended in PTOM. Tumor cells were then seeded in 3D culture chambers as described above. Culture media were replaced every 4 days. For serial passaging of organoids, day 16 organoids were treated with collagenase for 2 hours then further dissociated with trypsin for 10-30 minutes. Cells were collected and re-seeded in 3D culture following protocols as described above. MCF-10A cells were obtained from ATCC. Gene expression data will be uploaded into NCBI's Gene Expression Omnibus (GEO). […]
# [2] = test system: tumor-organoids UHN17, UHN3; test: Basal O2 consumption measured by Seahorse flux analyzer with and without UNC1999
# Source text: as §1
# Recent studies reveal a relationship between oxygenation and regulation of H3K27me3 epigenetic mark^28,29. […] We measured basal respiration rates to investigate if tumor-organoids show differences in oxygen consumption. […]
# [3] = test system: H3K27me3 mark in UHN17 organoids; test: Immunostaining for H3K27me3 in control (DMSO) or UNC1999-treated tumor-organoids; conditions: at concentrations with significant growth-inhibitory effects
# Source text: as §2
# Inhibitors of BET (JQ1), histone deacetylase (LAQ824), DOT1L (SGC0946), G9a (A366) and EZH2 (UNC1999) were tested in progenitor-organoids to investigate their toxicities to normal cells. […] A366 and UNC1999 were administered to organoid cultures in combination with the current standard of care, gemcitabine (See FIG. 6 legend and FIG. 12). Organoids were not sensitive to G9a inhibition (FIG. 12A).
Compound,"sensitivity of organoids to G9a inhibition (MTT) ([1]; in combination with gemcitabine, tumor-organoids)",toxicity to normal cells (progenitor-organoids),basal oxygen consumption after EZH2 inhibition [2],"suppression of proliferation by EZH2 inhibition alone (MTT) ([1]; UNC1999 alone, UHN17, UHN3, UHN5)","proliferation upon EZH2 inhibition compared to gemcitabine treatment alone (MTT) ([1]; in combination with gemcitabine, UHN17, UHN3, UHN5, UHN15)",H3K27me3 mark after treatment [3],"growth inhibition in MTT assays ([1]; gemcitabine for 4 days, all five organoid cultures UHN6, UHN17, UHN3, UHN5, UHN15) [%]"
COc1cc2c(cc1OCCCN1CCCC1)N=C(N)C21CCC1 [A366],not sensitive,least toxic,–,–,–,–,–
CCCc1cc(C)[nH]c(=O)c1CNC(=O)c1cc(-c2ccc(N3CCN(C(C)C)CC3)nc2)cc2c1cnn2C(C)C [UNC1999],–,least toxic,suppressed,effective in suppressing proliferation,dose-dependent decreases in proliferation,suppressed the H3K27me3 mark,–
Nc1ccn([C@@H]2O[C@H](CO)[C@@H](O)C2(F)F)c(=O)n1 [gemcitabine],–,–,–,–,–,–,30
